From article PMC3580017 (Journal of natural products, 2013)

Test system: HT-29 human colon cancer cells
Assay: Cytotoxicity against HT-29 human colon cancer cells
Format: cell-based
Conditions: HT-29 versus CCD-112CoN

## CCCC/C=C/C=C/C=C/[C@@H]1CC[C@@H](O)[C@H](C)N1C [Compound 1, (2S,3R,6S)-6-((1E,3E,5E)-deca-1,3,5-trien-1-yl)-1,2-dimethylpiperidin-3-ol]
  selectivity ratio for cancerous colon cells versus normal colon cells: approximately 4
